# Several values for one entry are separate records, joined by “and”; a condition that tells them apart may be missing. Equal values may be shown once.
# How the values were obtained:
# NB-SDx = test: Pre-clinical efficacy study, NB-SDx PDX; assay type: in vivo; conditions: single mouse
# Experimental: Patient demographics and genetic characteristics are listed in (Supplementary Tables 1, 2)[17]. The maximum tolerated dose (MTD) was determined to be 36 MBq/kg administered by intra-peritoneal injection twice weekly for a total of 4 dose fractions and this fractionated regimen was used in all studies (Supplementary Fig. 1)[18],[19]. […] Nine of 11 PDX models were MYCN amplified (Fig. 1b), which is a hallmark of high-risk neuroblastoma. Tumor response was measured as the maximum percent decrease in tumor volume after treatment and event-free survival (EFS) was measured by the area over the curve method with tumor events pre-defined by tumor growth exceeding 2 cm[3],[18].
# The use of 2 mice per arm was based on the previously reported statistical analysis. PDX tumors were implanted into the right flank of 5 to 6-weeks old female mice weighing about 20–25 grams. […] Two additional dose levels of 12, and 24 MBq/kg/fraction were assessed in a subset of models and were administered as stated above. In two models treated at the 24 MBq/kg/fraction dose level we re-challenged tumor response at the time of tumor progression with an additional 4 dose fractions at 24 MBq/kg/fraction given twice weekly. Doses were prepared in 500 µL total volume. An equal volume of saline was used for the vehicle group. Tumors were measured using a digital caliper at the initiation of the study and two times per week during the treatment period. Tumor volumes were calculated as volume = ([…]∗0.5236)/1000. Weights were obtained twice weekly and mice were monitored daily for signs of toxicity. […] Tumor response was assessed by best response defined as greatest reduction in tumor volume following the last dose and is presented as percent change in tumor volume. Event-free survival was determined by area over the curve method that calculates the time to tumor event, which was defined as tumors reaching or exceeding a size ≥ 2 cm^3.
# Animal studies were performed in female mice due to the lack of sex-related differences for [^211At]PTT tolerability from initial dose response studies performed in female and male mice. Female mice were chosen due to their underlying behavior towards other study subjects that reduced nonstudy-related causes for decreased wellness. Pre-clinical efficacy studies were performed through “single mouse testing” to more closely recapitulate a clinical trial. […] Number size for treatment groups was determined by model tumor growth reproducibility, which was previously shown to have less than 5% normal variation with at least two animals. […] Event free survival was measured by area over the curve method to quantify time to event, which was set as tumor growth exceeding 2 cm[3],[19]. […]
# NB-EBC1x tumor = test: Biodistribution, autoradiography and tumor dosimetry in NB-EBC1x tumor-bearing mice; assay type: in vivo, female SCID CB17 mice; conditions: for %Injected Dose/gram, tumor: NB-EBC1 tumor, single mouse
# Experimental: At various time points mice were euthanized and tissues were harvested, weighed, and assayed for radioactivity by gamma counter. Decay corrected data presented as percent injected dose per gram of tissue (%ID/g). Human dosimetry was calculated using OLINDA/EXM software by fitting time activity curves for biodistribution data. Tissue autoradiography was performed by freezing excised tumors at 1 h postinjection of each respective treatment. One tumor was collected for each treatment group. Tumors were cryosectioned (Leica Cryotome) at a thickness of 20 µm. Each section was collected with a 200 µm gap and a total of three sections were collected for each tumor. Sections were then exposed to a phosphorfilm for 60 h and films were read on a Cyclone Plus phosphorimager (Perkin Elmer). Experimental conditions have been included in the Supplementary Methods.
# Animal studies were performed in female mice due to the lack of sex-related differences for [^211At]PTT tolerability from initial dose response studies performed in female and male mice. Female mice were chosen due to their underlying behavior towards other study subjects that reduced nonstudy-related causes for decreased wellness. Pre-clinical efficacy studies were performed through “single mouse testing” to more closely recapitulate a clinical trial. […] Number size for treatment groups was determined by model tumor growth reproducibility, which was previously shown to have less than 5% normal variation with at least two animals. Statistical tests for tumor response and event-free survival (EFS) were performed as a grouped analysis that included all tumor models treated at each respective dose level (n = 2 per model per dose level). Statistical differences between treatment groups for tumor response was performed by paired-model T-test that compared reduction in tumor volume for the 36 MBq/kg dose level vs. 24 MBq/kg or 12 MBq/kg. Event free survival was measured by area over the curve method to quantify time to event, which was set as tumor growth exceeding 2 cm[3],[19]. Differences in EFS were tested across all treated models for each respective dose level, and against untreated controls, by paired-model ANOVA analysis. Associations of drug target expression and response were performed by linear regression analysis of EFS and PARP1 mRNA expression. Genetic signatures were visually presented as a function of EFS and no statistical tests were applied. Blood and marrow toxicity studies were performed with n = 5 sample sizes and powered to detect >20% differences between untreated controls and treated animals. Results were tested for significance by one-way ANOVA comparison from untreated controls. Marrow colony formation assays were performed in replicates of 2 for each mouse subject, dependent on marrow isolation, and all replicates are included in final analyses. Statistical analysis was performed by ordinary one-way ANOVA comparison between the mean of control and test groups. Biodistribution studies were performed with n = 3 mice per time-point. Human dosimetry was calculated using OLINDA/EXM v1.1 software by fitting time activity curves for biodistribution data in a healthy mouse model. Tumor dosimetry was calculated by OLINDA/EXM v1.1 by fitting time activity curves for NB-EBC1 tumors from biodistribution data. All statistical analyses were performed in GraphPad Prism version 9.3.1 unless indicated otherwise.
# [1] = 24 MBq/kg/fraction x 4 fractions
# [2] = 36 MBq/kg/fraction x 4 fractions
compound,measurement,setting,value
"O=C1NCCn2c(-c3ccc([211At])cc3)nc3cccc1c32 [[^211At]PTT, Astatine-211-parthanatine]",EFS by AOC method,NB-SDx; [1],44.1 days and 46.5 days and 44.0589 days and 46.4742 days
same,Tumor response (% growth from study initiation at ~ 200 mm3),NB-SDx; [1],-80.9524% and -80%
same,EFS by AOC method,NB-SDx; [2],59.408 days and 51.1551 days
same,Tumor response (% growth from study initiation at ~ 200 mm3),NB-SDx; [2],-96.9697% and -85.7143%
same,average tumor dose,"NB-EBC1x tumor; 1-year-old phantom, derived from NB-EBC1 tumor-bearing mouse model",0.060 Gy per MBq/kg
same,thyroid uptake with co-administration of potassium iodide,NB-EBC1x tumor; 1 h,partially blocked
same,"Absorbed Dose, Tumor","NB-EBC1x tumor; NB-EBC1 tumor-bearing CB57 SCID mice, three values",4.5716 cGy/MBq/kg and 5.9806 cGy/MBq/kg and 7.417 cGy/MBq/kg
same,"%Injected Dose/gram, tumor",NB-EBC1x tumor; time point 0.5,2.4065 %ID/g and 3.551 %ID/g and 6.66 %ID/g
same,"%Injected Dose/gram, tumor",NB-EBC1x tumor; time point 1,8.705 %ID/g and 13.3276 %ID/g and 24.86 %ID/g
same,"%Injected Dose/gram, tumor",NB-EBC1x tumor; time point 6,7.986 %ID/g and 8.236 %ID/g and 8.192 %ID/g
same,"%Injected Dose/gram, tumor",NB-EBC1x tumor; time point 24,0.008485 %ID/g and 1.144 %ID/g and 1.578 %ID/g
same,tumor penetrance by ex-vivo autoradiography,"NB-EBC1x tumor; NB-EBC1 tumors, 1 h postinjection",high tumor penetrance
same,tumor dosimetry (estimated),NB-EBC1x tumor; NB-EBC1x tumor-bearing mouse model,6 cGy/MBq/kg
same,cumulative absorbed dose to tumor,"NB-EBC1x tumor; NB-EBC1x, after 4 dose fractions of 36 MBq/kg",8.6 Gy
same,absorbed dose to tumor per dose fraction,"NB-EBC1x tumor; NB-EBC1x, per 36 MBq/kg dose",2.15 Gy
same,biological half-life in tumor,NB-EBC1x tumor; seen in mice in the present study,5.1 hr
